One experiment concerns Escherichia coli. Briefly: Antibacterial activity against Escherichia coli ATCC 25922 by micro-broth dilution method. The class given is functional. A general note: In broth dilution the organism is exposed to a series of concentrations in liquid medium.
Another experiment concerns Acinetobacter baumannii. Briefly: Antibacterial activity against Acinetobacter baumannii IID876 by micro-broth dilution method. The class given is functional.
Experiment [1] concerns Staphylococcus aureus. Briefly: Ratio of MIC for quinolone-resistant Staphylococcus aureus MS5935 to MIC for quinolone-sensitive Staphylococcus aureus MS5935. The experiment is classed as functional.
Another experiment relates to Streptococcus pneumoniae. Briefly: Antibacterial activity against Streptococcus pneumoniae IID553 by micro-broth dilution method. The experiment is classed as functional.
Experiment [2] has as its system Staphylococcus aureus. The experiment in a line: Antibacterial activity against Staphylococcus aureus Smith by micro-broth dilution method. The class given is functional.
The subject of experiment [3] is Staphylococcus aureus. The experiment in a line: Antibacterial activity against methicillin resistant Staphylococcus aureus OIT971 by micro-broth dilution method. The class given is functional.
The test system of a further experiment is Enterococcus faecium. Briefly: Antibacterial activity against Enterococcus faecium VanA by micro-broth dilution method. The experiment is classed as functional.
The target in experiment [4] is Voltage-gated inwardly rectifying potassium channel KCNH2 (Homo sapiens, UniProt Q12809). The experiment in a line: Displacement of MK499 from human ERG.
For the next experiment, the system named is Pseudomonas aeruginosa. Briefly: Antibacterial activity against Pseudomonas aeruginosa PAO1 by micro-broth dilution method. The class given is functional.
Setting [5] is: Escherichia coli, ATCC 25922, read-out: MIC.
Where [6] appears, read: Acinetobacter baumannii, IID876, read-out: MIC.
Setting [7] is: Streptococcus pneumoniae, IID553, read-out: MIC.
Setting [8] is: Staphylococcus aureus, Smith, read-out: MIC.
Where [9] appears, read: Staphylococcus aureus, OIT971, read-out: MIC.
Where [10] appears, read: Enterococcus faecium, VanA, read-out: MIC.
Where [11] appears, read: Pseudomonas aeruginosa, PAO1, read-out: MIC.

Values after ≈ are worked out from the molar mass of the structure shown. Some results are limits rather than exact numbers.

As usually defined, the MIC is the least concentration at which growth counts as inhibited. One may read the IC50 as the concentration at which inhibition is half-maximal. Higher therefore signals a need for much substance.

Voltage-gated inwardly rectifying potassium channel KCNH2, sequence (Q12809 whole entry): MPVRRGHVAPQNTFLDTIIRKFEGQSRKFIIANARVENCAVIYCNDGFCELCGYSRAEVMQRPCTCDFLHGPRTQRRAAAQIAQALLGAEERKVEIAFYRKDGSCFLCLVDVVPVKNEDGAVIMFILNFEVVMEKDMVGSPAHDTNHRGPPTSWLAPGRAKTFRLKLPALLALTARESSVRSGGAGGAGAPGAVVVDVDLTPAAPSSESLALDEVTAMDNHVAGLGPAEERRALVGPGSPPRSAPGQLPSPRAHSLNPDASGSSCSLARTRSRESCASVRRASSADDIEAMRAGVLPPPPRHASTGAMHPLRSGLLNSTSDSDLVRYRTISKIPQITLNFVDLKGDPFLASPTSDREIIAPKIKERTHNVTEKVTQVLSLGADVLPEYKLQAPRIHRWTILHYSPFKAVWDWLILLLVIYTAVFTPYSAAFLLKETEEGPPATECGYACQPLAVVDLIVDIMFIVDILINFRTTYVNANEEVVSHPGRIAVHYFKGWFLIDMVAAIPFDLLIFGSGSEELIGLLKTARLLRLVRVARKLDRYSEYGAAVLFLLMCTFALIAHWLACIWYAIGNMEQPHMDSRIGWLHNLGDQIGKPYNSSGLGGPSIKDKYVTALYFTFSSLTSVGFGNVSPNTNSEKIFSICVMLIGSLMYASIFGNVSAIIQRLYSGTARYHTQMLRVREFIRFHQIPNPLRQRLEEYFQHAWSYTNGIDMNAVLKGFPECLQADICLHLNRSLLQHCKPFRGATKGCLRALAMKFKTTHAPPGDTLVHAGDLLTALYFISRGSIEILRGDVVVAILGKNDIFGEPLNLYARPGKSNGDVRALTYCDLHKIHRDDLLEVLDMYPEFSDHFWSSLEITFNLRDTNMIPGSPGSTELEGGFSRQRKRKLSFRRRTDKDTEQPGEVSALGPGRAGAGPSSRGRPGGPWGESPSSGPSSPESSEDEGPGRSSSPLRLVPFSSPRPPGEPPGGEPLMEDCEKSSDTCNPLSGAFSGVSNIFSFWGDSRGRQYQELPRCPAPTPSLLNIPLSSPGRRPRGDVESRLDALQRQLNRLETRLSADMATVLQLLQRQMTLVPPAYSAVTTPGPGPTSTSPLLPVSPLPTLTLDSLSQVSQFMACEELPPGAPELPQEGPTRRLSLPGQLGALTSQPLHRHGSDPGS

As to `COc1ccc2ncc(F)c([C@@H]3OC(=O)O[C@H]3C34CCC(NCc5ccc6c(n5)NC(=O)CO6)(CC3)CO4)c2n1` (single isomer, unassigned; (-)), the MIC in the experiment on Escherichia coli (setting [5]) is 16 µg/mL (≈ 29 µM); in the experiment on Acinetobacter baumannii (setting [6]), 16 µg/mL (≈ 29 µM); in the experiment on Streptococcus pneumoniae (setting [7]) it was 2 µg/mL (≈ 3.63 µM); in the experiment with Staphylococcus aureus [2] (setting [8]), 0.25 µg/mL (≈ 0.453 µM); in the experiment on Staphylococcus aureus [3] (setting [9]), 0.25 µg/mL (≈ 0.453 µM); in the experiment with Enterococcus faecium (setting [10]), 8 µg/mL (≈ 14.5 µM). In addition, the MIC in the experiment on Pseudomonas aeruginosa (setting [11]) is 16 µg/mL (≈ 29 µM). Also, the Ratio in the experiment with Staphylococcus aureus [1] is less than 4. In addition, the half-inhibitory concentration (IC50) in [4] is 4.9 µM.
Regarding `COc1ccc2ncc(F)c([C@H]3OC(=O)O[C@@H]3C34CCC(NCc5ccc6c(n5)NC(=O)CO6)(CC3)CO4)c2n1` (single isomer, unassigned; (+)), the MIC in the experiment with Escherichia coli (setting [5]) is 16 µg/mL (≈ 29 µM); with Acinetobacter baumannii (setting [6]), 16 µg/mL (≈ 29 µM); in the experiment with Streptococcus pneumoniae (setting [7]), 16 µg/mL (≈ 29 µM); in the experiment on Staphylococcus aureus [2] (setting [8]), 2 µg/mL (≈ 3.63 µM); in the experiment with Staphylococcus aureus [3] (setting [9]) it was 2 µg/mL (≈ 3.63 µM); in the experiment with Enterococcus faecium (setting [10]), 16 µg/mL (≈ 29 µM). For the same molecule, the MIC with Pseudomonas aeruginosa (setting [11]) amounted to 16 µg/mL (≈ 29 µM). In the experiment with Staphylococcus aureus [1], the Ratio is given as less than 4. The molecule further returned an IC50 in [4] of 11.2 µM.
With `COc1ccc2ncc(F)c(CC(C)(O)C34CCC(NCc5ccc6c(n5)NC(=O)CO6)(CC3)CO4)c2n1` (racemic), the MIC in the experiment with Escherichia coli (setting [5]) worked out at 8 µg/mL (≈ 15.3 µM); in the experiment with Acinetobacter baumannii (setting [6]), 2 µg/mL (≈ 3.82 µM); in the experiment with Streptococcus pneumoniae (setting [7]), 0.5 µg/mL (≈ 0.955 µM); with Staphylococcus aureus [2] (setting [8]), 0.06 µg/mL (≈ 0.115 µM); in the experiment on Staphylococcus aureus [3] (setting [9]), 0.06 µg/mL (≈ 0.115 µM); with Enterococcus faecium (setting [10]), 4 µg/mL (≈ 7.64 µM). Further, in the experiment on Pseudomonas aeruginosa (setting [11]), the MIC was determined as 32 µg/mL (≈ 61.1 µM). Further, the Ratio in the experiment on Staphylococcus aureus [1] is on record as less than 4. Moreover, the IC50 in [4] amounted to 6.1 µM.
In the case of `COc1ccc2ncc(F)c([C@H](O)[C@@H](O)C34CCC(NCc5ccc6c(n5)NC(=O)CO6)(CC3)CO4)c2n1` (single isomer, unassigned; (-)), the MIC with Escherichia coli (setting [5]) is 16 µg/mL (≈ 30.4 µM); in the experiment on Acinetobacter baumannii (setting [6]) it was 2 µg/mL (≈ 3.81 µM); in the experiment on Streptococcus pneumoniae (setting [7]) it was 8 µg/mL (≈ 15.2 µM); in the experiment with Staphylococcus aureus [2] (setting [8]) it was 1 µg/mL (≈ 1.9 µM); in the experiment with Staphylococcus aureus [3] (setting [9]) it was 1 µg/mL (≈ 1.9 µM); in the experiment on Enterococcus faecium (setting [10]) it was 16 µg/mL (≈ 30.4 µM). Besides, the minimum inhibitory concentration (MIC) in the experiment on Pseudomonas aeruginosa (setting [11]) was 64 µg/mL (≈ 122 µM). The Ratio with Staphylococcus aureus [1] is less than 4. Further, in [4], the IC50 was determined as 36.1 µM.
With `COc1ccc2ncc(F)c(C(CC34CCC(NCc5ccc6c(n5)NC(=O)CO6)(CC3)CO4)C(=O)O)c2n1` (racemic), the MIC in the experiment on Escherichia coli (setting [5]) is 32 µg/mL (≈ 59.5 µM); in the experiment with Acinetobacter baumannii (setting [6]), 32 µg/mL (≈ 59.5 µM); in the experiment on Streptococcus pneumoniae (setting [7]), 4 µg/mL (≈ 7.44 µM); in the experiment on Staphylococcus aureus [2] (setting [8]), 1 µg/mL (≈ 1.86 µM); in the experiment on Staphylococcus aureus [3] (setting [9]), 1 µg/mL (≈ 1.86 µM); in the experiment with Enterococcus faecium (setting [10]), 32 µg/mL (≈ 59.5 µM). Further, the MIC in the experiment on Pseudomonas aeruginosa (setting [11]) came out at 32 µg/mL (≈ 59.5 µM). Further, in the experiment on Staphylococcus aureus [1], the Ratio is recorded as less than 4. Also, the IC50 in experiment [4] was found to be 1 µM.
For the molecule `COc1ccc2ncc(F)c(C(C)(O)CC34CCC(NCc5ccc6c(n5)NC(=O)CO6)(CC3)CO4)c2n1` (racemic), the MIC with Escherichia coli (setting [5]) stood at 32 µg/mL (≈ 61.1 µM); in the experiment on Acinetobacter baumannii (setting [6]), 32 µg/mL (≈ 61.1 µM); in the experiment on Streptococcus pneumoniae (setting [7]), 4 µg/mL (≈ 7.64 µM); with Staphylococcus aureus [2] (setting [8]), 1 µg/mL (≈ 1.91 µM); in the experiment on Staphylococcus aureus [3] (setting [9]), 1 µg/mL (≈ 1.91 µM); in the experiment on Enterococcus faecium (setting [10]) it was 16 µg/mL (≈ 30.6 µM). Besides, the MIC in the experiment on Pseudomonas aeruginosa (setting [11]) stood at 32 µg/mL (≈ 61.1 µM).
Take `COc1ccc2ncc(F)c(CC(NS(C)(=O)=O)C34CCC(NCc5ccc6c(n5)NC(=O)CO6)(CC3)CO4)c2n1` (racemic): the MIC in the experiment with Escherichia coli (setting [5]), in the experiment on Acinetobacter baumannii (setting [6]), in the experiment on Streptococcus pneumoniae (setting [7]), in the experiment on Staphylococcus aureus [2] (setting [8]), in the experiment on Staphylococcus aureus [3] (setting [9]) and in the experiment with Enterococcus faecium (setting [10]) was 32 µg/mL (≈ 54.5 µM) each time. In addition, the MIC in the experiment on Pseudomonas aeruginosa (setting [11]) is 32 µg/mL (≈ 54.5 µM).
As to `CCOC(=O)C(CC12CCC(NCc3ccc4c(n3)NC(=O)CO4)(CC1)CO2)c1c(F)cnc2ccc(OC)nc12` (racemic), the MIC in the experiment with Escherichia coli (setting [5]) is 32 µg/mL (≈ 56.6 µM); in the experiment on Acinetobacter baumannii (setting [6]), 32 µg/mL (≈ 56.6 µM); in the experiment with Streptococcus pneumoniae (setting [7]), 8 µg/mL (≈ 14.1 µM); with Staphylococcus aureus [2] (setting [8]) it was 2 µg/mL (≈ 3.54 µM); in the experiment on Staphylococcus aureus [3] (setting [9]), 2 µg/mL (≈ 3.54 µM); in the experiment with Enterococcus faecium (setting [10]), 32 µg/mL (≈ 56.6 µM). For the same molecule, the MIC with Pseudomonas aeruginosa (setting [11]) was 32 µg/mL (≈ 56.6 µM).
Turning to `COc1ccc2ncc(F)c(C(CO)CC34CCC(NCc5ccc6c(n5)NC(=O)CO6)(CC3)CO4)c2n1` (racemic), the MIC with Escherichia coli (setting [5]) was determined as 32 µg/mL (≈ 61.1 µM); in the experiment with Acinetobacter baumannii (setting [6]) it was 16 µg/mL (≈ 30.6 µM); in the experiment on Streptococcus pneumoniae (setting [7]) it was 2 µg/mL (≈ 3.82 µM); in the experiment on Staphylococcus aureus [2] (setting [8]), 1 µg/mL (≈ 1.91 µM); with Staphylococcus aureus [3] (setting [9]), 1 µg/mL (≈ 1.91 µM); in the experiment on Enterococcus faecium (setting [10]) it was 16 µg/mL (≈ 30.6 µM). Further, the MIC in the experiment with Pseudomonas aeruginosa (setting [11]) came to 32 µg/mL (≈ 61.1 µM).
For the molecule `COc1ccc2ncc(F)c(C/C(=N\O)C34CCC(NCc5ccc6c(n5)NC(=O)CO6)(CC3)CO4)c2n1`, the MIC in the experiment on Escherichia coli (setting [5]) turned out to be 2 µg/mL (≈ 3.83 µM); in the experiment with Acinetobacter baumannii (setting [6]), 2 µg/mL (≈ 3.83 µM); in the experiment on Streptococcus pneumoniae (setting [7]), 2 µg/mL (≈ 3.83 µM); in the experiment with Staphylococcus aureus [2] (setting [8]), 0.5 µg/mL (≈ 0.957 µM); with Staphylococcus aureus [3] (setting [9]) it was 0.5 µg/mL (≈ 0.957 µM); in the experiment on Enterococcus faecium (setting [10]), 2 µg/mL (≈ 3.83 µM). The MIC with Pseudomonas aeruginosa (setting [11]) came to 2 µg/mL (≈ 3.83 µM). The Ratio in the experiment on Staphylococcus aureus [1] is less than 4. The IC50 in experiment [4] turned out to be 1.6 µM.
Regarding `COc1ccc2ncc(F)c(CC(N)C34CCC(NCc5ccc6c(n5)NC(=O)CO6)(CC3)CO4)c2n1` (single isomer, unassigned; (-)), the MIC in the experiment with Escherichia coli stood at 1 µg/mL (≈ 1.97 µM); against Acinetobacter baumannii, 0.25 µg/mL (≈ 0.492 µM); with Streptococcus pneumoniae, 2 µg/mL (≈ 3.93 µM); with Staphylococcus aureus [2] it was 0.13 µg/mL (≈ 0.256 µM); against Staphylococcus aureus [3], 0.13 µg/mL (≈ 0.256 µM); with Enterococcus faecium, 4 µg/mL (≈ 7.87 µM). The molecule also came in with an MIC in the experiment with Pseudomonas aeruginosa of 8 µg/mL (≈ 15.7 µM).
